Results as given in patent US20250270200A1, “CTPS1 INHIBITORS AND USES THEREOF” (Nimbus Clotho, Inc., priority 2022, published 2025).
pIC50: −log10 of the molar value.

Molecular target: T1, human CTPS1 (Homo sapiens, UniProt P17812)
T1 sequence (P17812 1-591): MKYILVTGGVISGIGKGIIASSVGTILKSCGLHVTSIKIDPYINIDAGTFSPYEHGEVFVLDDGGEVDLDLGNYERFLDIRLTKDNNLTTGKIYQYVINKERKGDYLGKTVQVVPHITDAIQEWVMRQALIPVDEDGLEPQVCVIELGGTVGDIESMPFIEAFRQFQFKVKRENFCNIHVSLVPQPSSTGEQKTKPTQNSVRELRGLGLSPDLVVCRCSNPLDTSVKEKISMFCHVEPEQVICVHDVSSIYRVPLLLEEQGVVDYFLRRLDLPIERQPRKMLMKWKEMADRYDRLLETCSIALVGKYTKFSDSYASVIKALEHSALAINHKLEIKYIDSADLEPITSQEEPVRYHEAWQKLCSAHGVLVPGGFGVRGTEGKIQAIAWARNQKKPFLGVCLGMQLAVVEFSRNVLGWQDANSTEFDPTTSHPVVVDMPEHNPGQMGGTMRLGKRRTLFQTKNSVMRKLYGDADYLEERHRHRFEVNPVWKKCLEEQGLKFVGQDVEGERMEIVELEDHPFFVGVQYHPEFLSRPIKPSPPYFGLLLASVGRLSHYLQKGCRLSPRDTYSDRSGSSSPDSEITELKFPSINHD
Test: ADP-Glo assay, human CTPS1 enzyme inhibition
Assay type: biochemical
Conditions: wild-type human CTPS1, 25 nM enzyme; ADP-Glo; read-out: ADP-Glo_WT_hCTPS1—25 nM_IC50 (IC50)
Method in brief: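 Full-length tagged human CTPS1 (25 nM) pre-incubated 10 min at 25° C with compound, then 10 min with ATP (120 μM) and UTP (160 μM); reaction started with L-glutamine (100 μM) and GTP (60 μM), 1% DMSO, in HEPES pH 7.4, 10 mM Mg2+, 5 mM KCl, 2 mM DTT. Run within linear phase at 25° C; ADP measured by ADP-Glo luminescence.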

SMILES	pIC50
CCOc1cncc(-c2cnc(C(=O)N[C@@H](c3cc(NS(=O)(=O)C4CC4)ccn3)[C@H]3CCCN3C)s2)n1 [I-118, N-((R)-(4-(cyclopropanesulfonamido)pyridin-2-yl)((R)-1-methylpyrrolidin-2-yl)methyl)-5-(6-ethoxypyrazin-2-yl)thiazole-2-carboxamide]	7.60 to 8.30
CCOc1cncc(-c2cnc(C(=O)N[C@H](c3cc(NS(=O)(=O)C4CC4)ccn3)[C@@H]3CC(=O)N(C)C3)s2)n1 [I-119, N-((S)-(4-(cyclopropanesulfonamido)pyridin-2-yl)((R)-1-methyl-5-oxopyrrolidin-3-yl)methyl)-5-(6-ethoxypyrazin-2-yl)thiazole-2-carboxamide]	7.30 to 7.60
CCOc1cncc(-c2cnc(C(=O)N[C@H](c3cc(NS(=O)(=O)C4CC4)ccn3)[C@H]3CC(=O)N(C)C3)s2)n1 [I-120, N-((S)-(4-(cyclopropanesulfonamido)pyridin-2-yl)((S)-1-methyl-5-oxopyrrolidin-3-yl)methyl)-5-(6-ethoxypyrazin-2-yl)thiazole-2-carboxamide]	7.30 to 7.60
CCOc1cncc(-c2cnc(C(=O)N[C@@H](c3cc(NS(=O)(=O)C4CC4)ccn3)[C@@H]3CC(=O)N(C)C3)s2)n1 [I-121, N-((R)-(4-(cyclopropanesulfonamido)pyridin-2-yl)((R)-1-methyl-5-oxopyrrolidin-3-yl)methyl)-5-(6-ethoxypyrazin-2-yl)thiazole-2-carboxamide]	7.60 to 8.30
CCOc1cncc(-c2cnc(C(=O)N[C@@H](c3cc(NS(=O)(=O)C4CC4)ccn3)[C@H]3CC(=O)N(C)C3)s2)n1 [I-122, N-((R)-(4-(cyclopropanesulfonamido)pyridin-2-yl)((S)-1-methyl-5-oxopyrrolidin-3-yl)methyl)-5-(6-ethoxypyrazin-2-yl)thiazole-2-carboxamide]	7.60 to 8.30
CCOc1cncc(-c2cnc(C(=O)N[C@@H](CN3C[C@H]4CC[C@@H]3CO4)c3cc(NS(=O)(=O)C4CC4)ccn3)s2)n1 [I-123, N-((S)-2-((1R,4R)-2-oxa-5-azabicyclo[2.2.2]octan-5-yl)-1-(4-(cyclopropanesulfonamido)pyridin-2-yl)ethyl)-5-(6-ethoxypyrazin-2-yl)thiazole-2-carboxamide]	7.00 to 7.30
CCOc1cncc(-c2cnc(C(=O)N[C@H](CN3C[C@H]4CC[C@@H]3CO4)c3cc(NS(=O)(=O)C4CC4)ccn3)s2)n1 [I-124, N-((R)-2-((1R,4R)-2-oxa-5-azabicyclo[2.2.2]octan-5-yl)-1-(4-(cyclopropanesulfonamido)pyridin-2-yl)ethyl)-5-(6-ethoxypyrazin-2-yl)thiazole-2-carboxamide]	7.30 to 7.60
CCOc1cncc(-c2cnc(C(=O)N[C@@H](CN3CC[C@@]4(CCOC4)C3)c3cc(NS(=O)(=O)C4CC4)ccn3)s2)n1 [I-125, N-((S)-1-(4-(cyclopropanesulfonamido)pyridin-2-yl)-2-((R)-2-oxa-7-azaspiro[4.4]nonan-7-yl)ethyl)-5-(6-ethoxypyrazin-2-yl)thiazole-2-carboxamide]	7.30 to 7.60
CCOc1cncc(-c2cnc(C(=O)N[C@H](CN3CC[C@@]4(CCOC4)C3)c3cc(NS(=O)(=O)C4CC4)ccn3)s2)n1 [I-126, N-((R)-1-(4-(cyclopropanesulfonamido)pyridin-2-yl)-2-((R)-2-oxa-7-azaspiro[4.4]nonan-7-yl)ethyl)-5-(6-ethoxypyrazin-2-yl)thiazole-2-carboxamide]	7.60 to 8.30
CCOc1cncc(-c2cnc(C(=O)N[C@@H](CN3CC[C@]4(CCOC4)C3)c3cc(NS(=O)(=O)C4CC4)ccn3)s2)n1 [I-127, N-((S)-1-(4-(cyclopropanesulfonamido)pyridin-2-yl)-2-((S)-2-oxa-7-azaspiro[4.4]nonan-7-yl)ethyl)-5-(6-ethoxypyrazin-2-yl)thiazole-2-carboxamide]	7.60 to 8.30
CCOc1cncc(-c2cnc(C(=O)N[C@@H](CN3CC[C@@](C)(O)C3)c3cc(NS(=O)(=O)C4CC4)ccn3)s2)n1 [I-129, N-((S)-1-(4-(cyclopropanesulfonamido)pyridin-2-yl)-2-((R)-3-hydroxy-3-methylpyrrolidin-1-yl)ethyl)-5-(6-ethoxypyrazin-2-yl)thiazole-2-carboxamide]	7.00 to 7.30
CCOc1cncc(-c2cnc(C(=O)N[C@@H](CN3CC[C@](C)(O)C3)c3cc(NS(=O)(=O)C4CC4)ccn3)s2)n1 [I-130, N-((S)-1-(4-(cyclopropanesulfonamido)pyridin-2-yl)-2-((S)-3-hydroxy-3-methylpyrrolidin-1-yl)ethyl)-5-(6-ethoxypyrazin-2-yl)thiazole-2-carboxamide]	7.60 to 8.30
CCOc1cncc(-c2cnc(C(=O)N[C@H](CN3CC[C@](C)(O)C3)c3cc(NS(=O)(=O)C4CC4)ccn3)s2)n1 [I-131, N-((R)-1-(4-(cyclopropanesulfonamido)pyridin-2-yl)-2-((S)-3-hydroxy-3-methylpyrrolidin-1-yl)ethyl)-5-(6-ethoxypyrazin-2-yl)thiazole-2-carboxamide]	7.60 to 8.30
CCOc1cncc(-c2cnc(C(=O)N[C@H](CN3CC[C@@](C)(O)C3)c3cc(NS(=O)(=O)C4CC4)ccn3)s2)n1 [I-132, N-((R)-1-(4-(cyclopropanesulfonamido)pyridin-2-yl)-2-((R)-3-hydroxy-3-methylpyrrolidin-1-yl)ethyl)-5-(6-ethoxypyrazin-2-yl)thiazole-2-carboxamide]	7.60 to 8.30
CCOc1cncc(-c2cnc(C(=O)N[C@@H](CN3CCCOCC3)c3cc(NS(=O)(=O)C4CC4)ccn3)s2)n1 [I-134, (S)-N-(1-(4-(cyclopropanesulfonamido)pyridin-2-yl)-2-(1,4-oxazepan-4-yl)ethyl)-5-(6-ethoxypyrazin-2-yl)thiazole-2-carboxamide]	7.60 to 8.30
CCOc1cncc(-c2cnc(C(=O)N[C@@H](CN3C[C@@H]4CC[C@H]3CO4)c3cc(NS(=O)(=O)C4CC4)ccn3)s2)n1 [I-135, N-((S)-2-((1S,4S)-2-oxa-5-azabicyclo[2.2.2]octan-5-yl)-1-(4-(cyclopropanesulfonamido)pyridin-2-yl)ethyl)-5-(6-ethoxypyrazin-2-yl)thiazole-2-carboxamide]	≥ 8.30
CCOc1cncc(-c2cnc(C(=O)N[C@H](CN3C[C@@H]4CC[C@H]3CO4)c3cc(NS(=O)(=O)C4CC4)ccn3)s2)n1 [I-136, N-((R)-2-((1S,4S)-2-oxa-5-azabicyclo[2.2.2]octan-5-yl)-1-(4-(cyclopropanesulfonamido)pyridin-2-yl)ethyl)-5-(6-ethoxypyrazin-2-yl)thiazole-2-carboxamide]	7.60 to 8.30
CCOc1cncc(-c2cnc(C(=O)N[C@H](CN3CCCC3=O)c3cc(NS(=O)(=O)C4CC4)ccn3)s2)n1 [I-137, (R)-N-(1-(4-(cyclopropanesulfonamido)pyridin-2-yl)-2-(2-oxopyrrolidin-1-yl)ethyl)-5-(6-ethoxypyrazin-2-yl)thiazole-2-carboxamide]	7.30 to 7.60
CCOc1cncc(-c2cnc(C(=O)N[C@@H](CN3CCCC3=O)c3cc(NS(=O)(=O)C4CC4)ccn3)s2)n1 [I-138, (S)-N-(1-(4-(cyclopropanesulfonamido)pyridin-2-yl)-2-(2-oxopyrrolidin-1-yl)ethyl)-5-(6-ethoxypyrazin-2-yl)thiazole-2-carboxamide]	7.60 to 8.30
CCOc1cncc(-c2cnc(C(=O)N[C@H](Cn3ccccc3=O)c3cc(NS(=O)(=O)C4CC4)ccn3)s2)n1 [I-139, (R)-N-(1-(4-(cyclopropanesulfonamido)pyridin-2-yl)-2-(2-oxopyridin-1(2H)-yl)ethyl)-5-(6-ethoxypyrazin-2-yl)thiazole-2-carboxamide]	7.30 to 7.60
CCOc1cncc(-c2cnc(C(=O)N[C@@H](Cn3ccccc3=O)c3cc(NS(=O)(=O)C4CC4)ccn3)s2)n1 [I-140, (S)-N-(1-(4-(cyclopropanesulfonamido)pyridin-2-yl)-2-(2-oxopyridin-1(2H)-yl)ethyl)-5-(6-ethoxypyrazin-2-yl)thiazole-2-carboxamide]	7.60 to 8.30
CCOc1cncc(-c2cnc(C(=O)N(C)[C@@H](CN3CCOCC3)c3cc(NS(=O)(=O)C4CC4)ccn3)s2)n1 [I-141, (S)-N-(1-(4-(cyclopropanesulfonamido)pyridin-2-yl)-2-morpholinoethyl)-5-(6-ethoxypyrazin-2-yl)-N-methylthiazole-2-carboxamide]	7.00 to 7.30
CCOc1cncc(-c2cnc(C(=O)N(C)[C@H](CN3CCOCC3)c3cc(NS(=O)(=O)C4CC4)ccn3)s2)n1 [I-142, (R)-N-(1-(4-(cyclopropanesulfonamido)pyridin-2-yl)-2-morpholinoethyl)-5-(6-ethoxypyrazin-2-yl)-N-methylthiazole-2-carboxamide]	< 7.00
CCOc1cncc(-c2ccc(C(=O)N[C@@H](CN3CCOCC3)c3cc(NS(=O)(=O)C4CC4)ccn3)c(F)c2)n1 [I-143, (S)-N-(1-(4-(cyclopropanesulfonamido)pyridin-2-yl)-2-morpholinoethyl)-4-(6-ethoxypyrazin-2-yl)-2-fluorobenzamide]	7.00 to 7.30
